Experimental data from patent publication US20250073226A1, “USE OF OPIOID FOR TREATMENT OF AUTISM SPECTRUM DISORDERS” (priority 2021, published 2025).
Where “and” joins values, the source holds several entries; their conditions need not be identical. Equal values may be shown once.

How the values were obtained:
mice = conditions: Non-patent Document 28; cited from earlier work
[1] = tested on: model similar to this experiment; conditions: 3 hours after administration; Horm Behav. 2017 November; 96:130-136; cited from earlier work
[2] = Pharmacokinetic: drug concentrations in plasma by LC-MS after subcutaneous administration; conditions: ICR mice
[3] = morphine hydrochloride 0.03 mg/kg s.c., Average value
[4] = morphine hydrochloride 0.03 mg/kg s.c., individual animals
[5] = morphine hydrochloride 0.1 mg/kg s.c., Average value
[6] = morphine hydrochloride 0.1 mg/kg s.c., individual animals
[7] = morphine hydrochloride 3 mg/kg s.c., Average value
[8] = morphine hydrochloride 3 mg/kg s.c., individual animals

## CN1CC[C@]23c4c5ccc(O)c4O[C@H]2[C@@H](O)C=C[C@H]3[C@H]1C5 [morphine]
mice
  dose at which the analgesic effect was maximum: 8 mg/kg

## CC[C@H](C)[C@@H]1NC(=O)[C@H](Cc2ccc(O)cc2)NC(=O)[C@@H](N)CSSC[C@@H](C(=O)N2CCC[C@H]2C(=O)N[C@@H](CC(C)C)C(=O)NCC(N)=O)NC(=O)[C@H](CC(N)=O)NC(=O)[C@H](CCC(N)=O)NC1=O [oxytocin]
[1]
  improvement effect of social impairment, persistence: the drug efficacy disappears

## CN1CC[C@]23c4c5ccc(O)c4O[C@H]2[C@@H](O[C@@H]2O[C@H](C(=O)O)[C@@H](O)[C@H](O)[C@H]2O)C=C[C@H]3[C@H]1C5 [M6G]
[2]; [3]
  Plasma concentration M6G After 15 minutes: 13.2 ng/mL
  Plasma concentration M6G After 60 minutes: 5.09 ng/mL
  Plasma concentration M6G After 90 minutes: 0.488 ng/mL
[2]; [4]
  Plasma concentration M6G After 15 minutes: 10.4 ng/mL and 15.7 ng/mL and 13.6 ng/mL
  Plasma concentration M6G After 60 minutes: 6.28 ng/mL and 5.05 ng/mL and 3.95 ng/mL
  Plasma concentration M6G After 90 minutes: 0 ng/mL and 0.806 ng/mL and 0.657 ng/mL
[2]; [5]
  Plasma concentration M6G After 15 minutes: 44.6 ng/mL
  Plasma concentration M6G After 90 minutes: 3.41 ng/mL
[2]; morphine hydrochloride 0.1 mg/kg s.c., Average value (N = 3 excluded as outlier)
  Plasma concentration M6G After 60 minutes: 7.65 ng/mL
[2]; [6]
  Plasma concentration M6G After 15 minutes: 47.7 ng/mL and 35.3 ng/mL and 50.7 ng/mL
  Plasma concentration M6G After 60 minutes: 0 ng/mL and 15.3 ng/mL
  Plasma concentration M6G After 90 minutes: 2.98 ng/mL and 4.4 ng/mL and 2.85 ng/mL
[2]; [7]
  Plasma concentration M6G After 15 minutes: 1196 ng/mL
  Plasma concentration M6G After 60 minutes: 646 ng/mL
  Plasma concentration M6G After 90 minutes: 298 ng/mL
[2]; [8]
  Plasma concentration M6G After 15 minutes: 1250 ng/mL and 1340 ng/mL and 998 ng/mL
  Plasma concentration M6G After 60 minutes: 829 ng/mL and 580 ng/mL and 528 ng/mL
  Plasma concentration M6G After 90 minutes: 320 ng/mL and 240 ng/mL and 335 ng/mL
